This note sets out measurements from ChEMBL document CHEMBL1132239, “Tricyclic farnesyl protein transferase inhibitors: crystallographic and calorimetric studies of structure-activity relationships” (J Med Chem, 1999).

Series [1] is described as follows: Dissociation constant of the Compound. The series is classed as physicochemical.
In series [2] the target is Protein farnesyltransferase (Homo sapiens, UniProt P49354+P49356). The experiment in a line: Inhibition of Farnesyl protein transferase. The series is classed as protein-complex assay.

The term Kd denotes the equilibrium constant for the complex coming apart. Regarding `O=C(Cc1cc[n+]([O-])cc1)N1CCN([C@H]2c3ccc(Cl)cc3CCc3cc(Br)cnc32)CC1`, binding in series [1] was characterised by a dissociation constant (Kd) of 21 nM.

Broadly, the IC50 is the point on the concentration scale where inhibition reaches its midpoint. Molecule `O=C(Cc1cc[n+]([O-])cc1)N1CCC(=C2c3ccc(Cl)cc3CCc3cc(Br)cnc32)CC1` had an IC50 in series [2] of 52 nM. Moreover, binding in series [1] was characterised by a dissociation constant (Kd) of 17.5 nM.

Turning to `O=C(Cc1cc[n+]([O-])cc1)N1CCN([C@@H]2c3ccc(Cl)cc3CCc3cc(Br)cnc32)CC1`, in series [1], the Kd was 32 nM.

In series [1], `O=C(Cc1cc[n+]([O-])cc1)N1CCC(=C2c3ccc(Cl)cc3CCc3cccnc32)CC1` returned a dissociation constant (Kd) of 240 nM.

`O=C(Cc1cc[n+]([O-])cc1)N1CCC(=C2c3ncc(Br)cc3CCc3cc(Cl)cc(Br)c32)CC1`: the IC50 in series [2] stood at 3.9 nM. The molecule also showed a Kd in series [1] of 5.1 nM.
